Source: patent publication US11911477B2, “Use of fructose in preparing drug for treating ischemic injury” (Beihang University, priority 2021, dated 2024)

Legend:
DIV7 neurons [1] = assay: IPC with fructose pathway inhibitor sorbinil: ATP and NADPH level of DIV7 neurons; type: cell-based, mice; settings: fructose pathway inhibited by sorbinil, cellular level
Protocol: Secondly, to further verify effects of the fructose pathway in IPC ischemia protection, a fructose pathway inhibitor sorbinil was added at the cellular level. […] (4) Content of ATP and NADPH: cortical neurons were isolated from P0-P1 suckling mice, the neurons were inoculated on a 7th day by adding a lentiviral transfection protein vector that specifically detects ATP and a lentiviral transfection protein vector iNap that specifically detects NADPH; the neurons were fixated with 4% PFA, subjected to immunofluorescence staining, and data was collected through a confocal microscope, the fluorescence intensity of virus vector protein was counted using ImageJ, and the contents of ATP and NADPH were calculated.

OGD-injured neurons [2] = assay: Survival rate of OGD-treated neurons by MAP2 and DAPI immunofluorescence staining; settings: OGD 1.5 h, 2 mM, after 24 h, FIG. 14
Protocol: Immunofluorescence staining method: the neurons were cultured for 7 d, and subjected to OGD treatment for 1.5 h; fructose, fructose-1,6-bisphosphate and glycerol fructose were added each at a concentration of 2 mM; after 24 h, MAP2 and DAPI staining were conducted.

DIV7 neurons [3] = assay: CellTiter-Glo Luminescent cell viability of DIV7 neurons; type: cell-based; settings: for viability of DIV7 neurons: 0, 1, 2, 4, 6, 8 and 16 mM, each compared with the 0 mM group, FIG. 12
Excerpt: Effects of different concentrations of fructose on the viability of DIV7 neurons were studied using a CellTiter-Glo® Luminescent cell viability test kit, and an added concentration of the fructose was explored in the cell system.

OGD-injured neurons [4] = assay: CellTiter-Glo Luminescent cell viability of OGD-injured neurons; settings: OGD 1.5 h, 2 mM, after 24 h, FIG. 13
Protocol: The CellTiter-Glo® Luminescent cell viability test kit was used: the neuronal cells were cultured using a 96-well plate, and OGD treatment was conducted on neurons for 1.5 h on a 7th day; fructose, fructose-1,6-bisphosphate and glycerol fructose were added each at a concentration of 2 mM; after 24 h, the cell viability was detected by the kit.

OGD-injured neurons [5] = assay: Survival of OGD-injured neurons (TUNEL and MAP2 staining), fructose at different stages; type: cell-based; settings: 24 h reperfusion
Protocol: (1) Cell model: the cerebral ischemic stroke was simulated using an OGD model, DIV7 primary neurons were treated with a glucose-free medium in a hypoxic box (1% O2+5% CO2+94% N2), oxygen glucose deprivation was conducted at 37° C. for 1.5 h, and the primary neurons was cultured in a normal medium for 24 h under normoxic conditions. (3) Survival of neurons: a survival state of neurons was counted by TUNEL staining and immunofluorescence staining; the neuronal cells were subjected to growing on glass coverslips, fixated with 4% PFA for 10 min, washed with PBS, and subjected to incubation in a blocking buffer for 1 h, and a MAP2 primary antibody working solution was added to conduct culture overnight at 4° C.; the cells were washed with PBS, a MAP2 secondary antibody working solution was added to incubate at room temperature for 1 h; the cells were washed with PBS, subjected to TUNEL staining, and a mounting agent containing 4′,6-diamidino-2-phenylindole (DAPI) was added for mounting. Data was collected through a focusing microscope and the number of cell deaths was counted using ImageJ. (1) Neuron survival: DIV7 neurons were divided into four groups: a control group, an OGD group (for OGD treatment), an OGD+Fru(per) group (fructose treatment during OGD treatment), and an OGD+Fru(post) group (fructose treatment in a reperfusion stage after OGD treatment). […]

MCAO rats = assay: MCAO rat model: Longa behavioral score and TTC cerebral infarct area; type: in vivo; settings: for area of cerebral infarction (TTC staining) / neurobehavioral characteristics (Longa scoring): 24 h
OGD-injured neurons [6] = assay: ATP and NADPH content of OGD-injured neurons (lentiviral sensors), fructose at different stages; type: cell-based, mice
Excerpt: (4) Content of ATP and NADPH: cortical neurons were isolated from P0-P1 suckling mice, the neurons were inoculated on a 7th day by adding a lentiviral transfection protein vector that specifically detects ATP and a lentiviral transfection protein vector iNap that specifically detects NADPH; the neurons were fixated with 4% PFA, subjected to immunofluorescence staining, and data was collected through a confocal microscope, the fluorescence intensity of virus vector protein was counted using ImageJ, and the contents of ATP and NADPH were calculated. By detecting an expression level of the lentiviral transfection protein vector that specifically detects ATP and the lentiviral transfection protein vector iNap that specifically detects NADPH in the primary neuron culture system, the levels are characterized for neuronal energy metabolism and redox metabolism. (2) Content of ATP and NADPH: cortical neurons were isolated from P0-P1 suckling mice, the neurons were inoculated on a 7th day by adding a lentiviral transfection protein vector that specifically detects ATP and a lentiviral transfection protein vector iNap that specifically detects NADPH; the neurons were divided into four groups: a control group, an OGD group (for OGD treatment), an OGD+Fru(per) group (fructose treatment during OGD treatment), and an OGD+Fru(post) group (fructose treatment in a reperfusion stage after OGD treatment). Reperfusion was conducted 24 h after OGD; the neurons were fixated with 4% PFA, subjected to MAP2 immunofluorescence staining to observe the content of ATP and NADPH of the neurons.

[7] = intraperitoneal injection after suture plug removal (MCAO+Fru-2)
[8] = tail vein injection after suture plug removal (MCAO+Fru-1)
[9] = fructose added in the OGD phase
[10] = fructose added in the reperfusion phase

| Compound | content of ATP after IPC (DIV7 neurons [1]; FIGS. 4A-B) | content of NADPH after IPC (DIV7 neurons [1]; FIGS. 5A-B) | survival rate of neurons after OGD (OGD-injured neurons [2]) | viability of DIV7 neurons (DIV7 neurons [3]) | cell viability of OGD-injured neurons (OGD-injured neurons [4]) | neuronal death rate caused by OGD (OGD-injured neurons [5]; fructose added in the OGD phase (OGD+Fru(per))) | neuronal death rate caused by OGD (OGD-injured neurons [5]; fructose added in the reperfusion phase (OGD+Fru(post))) | comparison of routes of administration (tail vein vs intraperitoneal) (MCAO rats; MCAO rats, neurobehavior and infarct area) | area of cerebral infarction (TTC staining) (MCAO rats; [7]) | neurobehavioral characteristics (Longa scoring) (MCAO rats; [7]) | area of cerebral infarction (TTC staining) (MCAO rats; [8]) | neurobehavioral characteristics (Longa scoring) (MCAO rats; [8]) | concentration with better effect of improving the activity of DIV7 neuronal cells (DIV7 neurons [3]; different concentrations of fructose, FIG. 11) | ATP production of neurons (OGD-injured neurons [6]; [9]) | NADPH production of neurons (OGD-injured neurons [6]; [9]) | ATP production of neurons (OGD-injured neurons [6]; [10]) | NADPH production of neurons (OGD-injured neurons [6]; [10]) |
| --- | --- | --- | --- | --- | --- | --- | --- | --- | --- | --- | --- | --- | --- | --- | --- | --- | --- |
| O=C1NC(=O)[C@@]2(CCOc3ccc(F)cc32)N1 [sorbinil] | the IPC no longer increases the contents of ATP and NADPH | the IPC no longer increases the contents of ATP and NADPH | – | – | – | – | – | – | – | – | – | – | – | – | – | – | – |
| O=C(COP(=O)(O)O)[C@@H](O)[C@H](O)[C@H](O)COP(=O)(O)O [reference compound] | – | – | can improve the survival rate of the neurons | can improve neuron viability | have a tendency to increase the viability of OGD-injured neurons | – | – | – | – | – | – | – | – | – | – | – | – |
| O=C(CO)[C@@H](O)[C@H](O)[C@H](O)CO [fructose] | – | – | – | can significantly enhance viability of the neurons | can significantly increase the cell viability of OGD-injured neurons | can reduce the neuronal death rate caused by OGD | can reduce the neuronal death rate caused by OGD | tail vein injection is generally better than the intraperitoneal injection | reduce the area of cerebral infarction | can improve the neurobehavioral characteristics of MCAO rats | reduce the area of cerebral infarction | can improve the neurobehavioral characteristics of MCAO rats | 1 to 6 mM | can enhance the decrease in ATP and NADPH production of neurons caused by OGD | can enhance the decrease in ATP and NADPH production of neurons caused by OGD | can enhance the decrease in ATP and NADPH production of neurons caused by OGD | can enhance the decrease in ATP and NADPH production of neurons caused by OGD |
